pEC50, pIC50, pKd: −log10 of the molar value.
Experiments:
WDR5 [1] = biological target: T1, WDR5 (Homo sapiens, UniProt P61964); experiment: Fluorescence Polarization (FP) binding assay
Description: H3 (1-15) ([…]), and 9-Ala-FAM ((Ac)-[…]-(Ahx-Ahx)-K(5,6-FAM)) (where Ahx represents 6 amino hexanoic acid linkers) peptides for WDR5 were synthesized, N-terminal-labeled with isothiocyanate-fluorescein, and purified by Tufts University Core Services (Boston, Mass.). Compound binding assays were performed at a constant labeled peptide concentration of 30 or 20 nM for H3 (1-15) and 9-Ala-FAM respectively. WDR5 concentrations of 0.3 μM for H3 (1-15) and 0.05 μM for 9-Ala-FAM were used. For both the H3 (1-15) and 9-Ala-FAM peptides, 80 mM sodium phosphate buffer (pH 6.5), 20 mM KCl, and 0.008% Triton X-100 was used. For the H3 (1-15) peptide, FP assays were measured in 10 μl aliquots in 384-well Axygen plates using a Synergy 4 microplate reader (BioTek) with an excitation wavelength of 485 nm and emission wavelength of 528 nm. For the 9-Ala-FAM peptide, FP assays were measured in 125 μl aliquots in 96 well Microfluor plates using a ViewLux instrument (Perkin Elmer) with an excitation wavelength of 480 nm and emission wavelength of 540 nm. To determine Kdsp values, the data were fit to a hyperbolic function using Sigma Plot software (Systat Software). The Kdisp values represent the average of quadruplicate measurements.

MV4-11 cells = experiment: Cell proliferation assay (ATPlite); format: cell-based; settings: Homo sapiens, 120 h; MV4-11 cells, five days; read-out: GI MV411 EC50
Description: MV4-11 cells were seeded into a 96-well plate at 1,000 cells/well in 150 μl medium (Alpha-MEM containing 10% FBS, 100 μg/ml Normocin, and 50 μg/ml Gentamycin, Invitrogen). A HP D300 digital dispenser was used to dose cells with DMSO or test compounds across a 10-point range of concentrations (high dose of 10 μM), and cultures were grown in a humidified 5% CO2 incubator at 37° C. After five days, plates were removed from incubator and equilibrated to room temperature. An equal volume of ATPlite assay reagent was added to each well, and samples were processed according to manufacturer's instructions (Perkin Elmer). Luminescent signal was measured using an Envision plate reader equipped with a US-Luminescence detector.

WDR5 [2] = biological target: T1, WDR5; experiment: Surface Plasmon Resonance (SPR) assay; format: binding; parameters: Full length WDR5 with an N-terminal His tag and C-terminal AviTag; His tag (N); made in house; host or cells: E. coli; settings: read-out: SPR Kd
Description: Exemplary compounds of the application were dissolved in 100% DMSO at 10 mM, assayed fresh, and then stored at −20° C. for repeat studies and other experiments. Full length WDR5 with an N-terminal His tag and C-terminal AviTag (Avidity Inc.) was expressed in E. coli with coexpression of BirA to biotin label the protein in vivo. Purification was via Ni-NTA.
SPR studies were performed using a Biacore™ T200 instrument (GE Health Sciences Inc.). Biotinylated WDR5 protein (approximately 3000RU) was stably captured to streptavidin coupled SA chips according to the manufacture's protocol (GE Health Sciences Inc.). The running buffer used was HBS-EP (20 mM Hepes pH 7.4, 150 mM NaCl, 3 mM EDTA, 0.05% P-20) plus 5% DMSO with a flow rate of 40 μl/min. For SPR analysis, 5 different concentrations of each exemplary compound of the application were sprayed into 96 or 384 well plates using an HP D300 digital dispenser. The concentration ranged from about 195 nM to about 12 nM in a two-fold series. […] Curve fitting and KD calculations were performed with the Biacore T200 Evalutation software (GE Health Sciences Inc).

## C[C@@H]1CN(c2ncc(-c3c(F)cc(N4CCN(C)[C@@H](C)C4)c(NC(=O)c4c[nH]c(=O)cc4C(F)F)c3F)cn2)C[C@H](C)O1 [Example 33, 4-(Difluoromethyl)-N-(3-(2-((2S,6R)-2,6-dimethylmorpholino)pyrimidin-5-yl)-6-((S)-3,4-dimethylpiperazin-1-yl)-2,4-difluorophenyl)-6-oxo-1,6-dihydropyridine-3-carboxamide]
WDR5 [1]
  pIC50: 7.83
MV4-11 cells
  pEC50: 7.84
WDR5 [2]
  pKd: 9.21

## CC(C)OC(=O)N1CC=C(c2c(F)cc(N3CCN(C)[C@@H](C)C3)c(NC(=O)c3c[nH]c(=O)cc3C(F)F)c2F)CC1 [Example 34, Isopropyl (S)-4-(3-(4-(difluoromethyl)-6-oxo-1,6-dihydropyridine-3-carboxamido)-4-(3,4-dimethylpiperazin-1-yl)-2,6-difluorophenyl)-3,6-dihydropyridine-1(2H)-carboxylate]
WDR5 [1]
  pIC50: 7.66
MV4-11 cells
  pEC50: 7.35
WDR5 [2]
  pKd: 8.69

## CC(C)OC(=O)N1CCC=C(c2c(F)cc(N3CCN(C)[C@@H](C)C3)c(NC(=O)c3c[nH]c(=O)cc3C(F)F)c2F)C1 [Example 35, Isopropyl (S)-5-(3-(4-(difluoromethyl)-6-oxo-1,6-dihydropyridine-3-carboxamido)-4-(3,4-dimethylpiperazin-1-yl)-2,6-difluorophenyl)-3,6-dihydropyridine-1(2H)-carboxylate]
WDR5 [1]
  pIC50: 7.53
MV4-11 cells
  pEC50: 6.39
WDR5 [2]
  pKd: 8.20

## CC(C)OC(=O)N1CC=C(c2c(F)cc(N3CCN(C)[C@@H](C)C3)c(NC(=O)c3c[nH]c(=O)cc3C(F)F)c2F)C1 [Example 36, Isopropyl (S)-3-(3-(4-(difluoromethyl)-6-oxo-1,6-dihydropyridine-3-carboxamido)-4-(3,4-dimethylpiperazin-1-yl)-2,6-difluorophenyl)-2,5-dihydro-H-pyrrole-1-carboxylate]
WDR5 [1]
  pIC50: 7.88
MV4-11 cells
  pEC50: 7.26
WDR5 [2]
  pKd: 8.98

## CC(C)OC(=O)N1CC=C(c2c(F)cc(N3CCN(C)[C@@H](C)C3)c(NC(=O)c3c[nH]c(=O)cc3C(F)(F)F)c2F)C1 [Example 37, Isopropyl (S)-3-(4-(3,4-dimethylpiperazin-1-yl)-2,6-difluoro-3-(6-oxo-4-(trifluoromethyl)-1,6-dihydropyridine-3-carboxamido)phenyl)-2,5-dihydro-1H-pyrrole-1-carboxylate]
WDR5 [1]
  pIC50: 7.79
MV4-11 cells
  pEC50: 6.97
WDR5 [2]
  pKd: 8.65

## CC(C)OC(=O)N1CCC=C(c2c(F)cc(N3CCN(C)[C@@H](C)C3)c(NC(=O)c3c[nH]c(=O)cc3C(F)(F)F)c2F)C1 [Example 38, Isopropyl (S)-5-(4-(3,4-dimethylpiperazin-1-yl)-2,6-difluoro-3-(6-oxo-4-(trifluoromethyl)-1,6-dihydropyridine-3-carboxamido)phenyl)-3,6-dihydropyridine-1(2H)-carboxylate]
WDR5 [1]
  pIC50: 7.76
MV4-11 cells
  pEC50: 6.73
WDR5 [2]
  pKd: 7.79

## CC(C)OC(=O)N1CC=C(c2c(F)cc(N3CCN(C)[C@@H](C)C3)c(NC(=O)c3c[nH]c(=O)cc3C(F)(F)F)c2F)CC1 [Example 39, Isopropyl (S)-4-(4-(3,4-dimethylpiperazin-1-yl)-2,6-difluoro-3-(6-oxo-4-(trifluoromethyl)-1,6-dihydropyridine-3-carboxamido)phenyl)-3,6-dihydropyridine-1(2H)-carboxylate]
WDR5 [1]
  pIC50: 7.82
MV4-11 cells
  pEC50: 7.45
WDR5 [2]
  pKd: 8.80

## C[C@@H]1CN(c2cc(F)c(-c3cnc(N4CCOCC4)nc3)c(F)c2NC(=O)c2cn(C)c(=O)cc2C(F)F)C[C@H](C)N1C [Example 40, N-(2,4-difluoro-3-(2-morpholinopyrimidin-5-yl)-6-((3S,5R)-3,4,5-trimethylpiperazin-1-yl)phenyl)-4-(difluoromethyl)-1-methyl-6-oxo-1,6-dihydropyridine-3-carboxamide]
WDR5 [1]
  pIC50: 7.70
MV4-11 cells
  pEC50: 6.54
WDR5 [2]
  pKd: 8.55

## C[C@@H]1CN(c2cc(F)c(-c3cnc(N4CCOCC4)nc3)c(F)c2NC(=O)c2c[nH]c(=O)cc2C(F)F)C[C@H](C)N1C [Example 41, N-(2,4-difluoro-3-(2-morpholinopyrimidin-5-yl)-6-((3S,5R)-3,4,5-trimethylpiperazin-1-yl)phenyl)-4-(difluoromethyl)-6-oxo-1,6-dihydropyridine-3-carboxamide]
WDR5 [1]
  pIC50: 8.15
MV4-11 cells
  pEC50: 7.31
WDR5 [2]
  pKd: 9.08

## C[C@H]1CN(c2cc(F)c(C3=CCN(C(=O)OC4CC(F)(F)C4)CC3)c(F)c2NC(=O)c2c[nH]c(=O)cc2C(F)F)CCN1C [Example 42, 3,3-Difluorocyclobutyl (S)-4-(3-(4-(difluoromethyl)-6-oxo-1,6-dihydropyridine-3-carboxamido)-4-(3,4-dimethylpiperazin-1-yl)-2,6-difluorophenyl)-3,6-dihydropyridine-1(2H)-carboxylate]
WDR5 [1]
  pIC50: 7.95
MV4-11 cells
  pEC50: 6.55
WDR5 [2]
  pKd: 8.62

## C[C@H]1CN(c2cc(F)c(C3=CCCN(C(=O)OC4CC(F)(F)C4)C3)c(F)c2NC(=O)c2c[nH]c(=O)cc2C(F)F)CCN1C [Example 43, 3,3-Difluorocyclobutyl (S)-5-(3-(4-(difluoromethyl)-6-oxo-1,6-dihydropyridine-3-carboxamido)-4-(3,4-dimethylpiperazin-1-yl)-2,6-difluorophenyl)-3,6-dihydropyridine-1(2H)-carboxylate]
WDR5 [1]
  pIC50: 7.80
MV4-11 cells
  pEC50: 6.19
WDR5 [2]
  pKd: 8.77

## C[C@H]1CN(c2cc(F)c(C3=CCN(C(=O)OC4CC(F)(F)C4)C3)c(F)c2NC(=O)c2c[nH]c(=O)cc2C(F)F)CCN1C [Example 44]
WDR5 [1]
  pIC50: 7.84
MV4-11 cells
  pEC50: 6.74
WDR5 [2]
  pKd: 8.63

## C[C@H]1CN(c2cc(F)c(C3=CCN(C(=O)OC4CC(F)(F)C4)C3)c(F)c2NC(=O)c2c[nH]c(=O)cc2C(F)(F)F)CCN1C [Example 45, 3,3-Difluorocyclobutyl (S)-3-(4-(3,4-dimethylpiperazin-1-yl)-2,6-difluoro-3-(6-oxo-4-(trifluoromethyl)-1,6-dihydropyridine-3-carboxamido)phenyl)-2,5-dihydro-1H-pyrrole-1-carboxylate]
WDR5 [1]
  pIC50: 7.92
MV4-11 cells
  pEC50: 7.12
WDR5 [2]
  pKd: 8.88

## C[C@H]1CN(c2cc(F)c(C3=CCCN(C(=O)OC4CC(F)(F)C4)C3)c(F)c2NC(=O)c2c[nH]c(=O)cc2C(F)(F)F)CCN1C [Example 46, 3,3-Difluorocyclobutyl (S)-5-(4-(3,4-dimethylpiperazin-1-yl)-2,6-difluoro-3-(6-oxo-4-(trifluoromethyl)-1,6-dihydropyridine-3-carboxamido)phenyl)-3,6-dihydropyridine-1(2H)-carboxylate]
WDR5 [1]
  pIC50: 7.83
MV4-11 cells
  pEC50: 6.22
WDR5 [2]
  pKd: 8.53

## C[C@H]1CN(c2cc(F)c(C3=CCN(C(=O)OC4CC(F)(F)C4)CC3)c(F)c2NC(=O)c2c[nH]c(=O)cc2C(F)(F)F)CCN1C [Example 47, 3,3-Difluorocyclobutyl (S)-4-(4-(3,4-dimethylpiperazin-1-yl)-2,6-difluoro-3-(6-oxo-4-(trifluoromethyl)-1,6-dihydropyridine-3-carboxamido)phenyl)-3,6-dihydropyridine-1(2H)-carboxylate]
WDR5 [1]
  pIC50: 7.76
MV4-11 cells
  pEC50: 7.20
WDR5 [2]
  pKd: 8.87

## COc1cnc(N2CC=C(c3c(F)cc(N4CCN(C)[C@@H](C)C4)c(NC(=O)c4c[nH]c(=O)cc4C(F)F)c3F)CC2)nc1 [Example 48, (S)-4-(difluoromethyl)-N-(6-(3,4-dimethylpiperazin-1-yl)-2,4-difluoro-3-(1-(5-methoxypyrimidin-2-yl)-1,2,3,6-tetrahydropyridin-4-yl)phenyl)-6-oxo-1,6-dihydropyridine-3-carboxamide]
WDR5 [1]
  pIC50: 7.65
MV4-11 cells
  pEC50: 6.57
WDR5 [2]
  pKd: 8.83
